One data set deals with carbonic anhydrase (Homo sapiens, UniProt P00918). Put plainly: carbonic anhydrase inhibition (I50) and Ki, methods of Ponticello et al., J. Med. Chem., 30, 591 (1987). It is filed as biochemical. The conditions noted are these: for IC50: carbonic anhydrase inhibition.
Another data set relates to intraocular pressure. The conditions noted are these: cited from earlier work.
Data set [1] concerns ocular hypertensive monkey. The data set can be described thus: drop in IOP in the ocular hypertensive monkey (Lee et al., Curr. Eye Res., 4,775-781 (1985)). It is filed as in vivo. The conditions noted are these: 16 hours after treatment.
The mark [2] stands for this setting: carbonic anhydrase, main value, read-out: Ki.
The mark [3] stands for this setting: value in parentheses, hi = more active component of racemic mixture, read-out: Ki (hi).

Molecules are shown by their SMILES. Where a name gives a salt, the structure may show the parent alone. Read-outs that look alike come from different tables or passages of the source.

Broadly, the Ki is the dissociation constant of the complex between target and ligand, obtained from inhibition or displacement. In the case of `CC[C@H]1C[C@H](NC)c2cc(S(N)(=O)=O)sc2S1(=O)=O` (relative stereo) [Compound 4], the Ki is 3.6 nM at carbonic anhydrase (setting [2]) and 1.8 nM at carbonic anhydrase (setting [3]).

`CC[C@@H]1C[C@H](NC)c2cc(S(N)(=O)=O)sc2S1(=O)=O` (relative stereo) [Compound 5]: the Ki on carbonic anhydrase (setting [2]) was 7.1 nM; on carbonic anhydrase (setting [3]) it was 2.6 nM.

On to `CCC[C@H]1C[C@H](NC)c2cc(S(N)(=O)=O)sc2S1(=O)=O` (relative stereo) [Compound 6], for which the Ki on carbonic anhydrase (setting [2]) was 2.1 nM; at carbonic anhydrase (setting [3]) it was 0.85 nM.

With `CCC[C@@H]1C[C@H](NC)c2cc(S(N)(=O)=O)sc2S1(=O)=O` (relative stereo) [Compound 7], the Ki was 2.8 nM on carbonic anhydrase (setting [2]) and 0.64 nM on carbonic anhydrase (setting [3]).

Broadly, the IC50 is the concentration at which inhibition is half-maximal. Compound `C=CC[C@H]1C[C@H](NCC)c2cc(S(N)(=O)=O)sc2S1(=O)=O` (relative stereo) [Compound 12, trans-6-Allyl-5,6-dihydro-4-ethylamino-4H-thieno[2,3-b]thiopyran-2-sulfonamide-7,7-dioxide hydrochloride] had an IC50 at carbonic anhydrase of 0.23 nM.

For `CCN[C@H]1C[C@@H](CC(C)C)S(=O)(=O)c2sc(S(N)(=O)=O)cc21` (relative stereo) [Compound 14], the figures for the Ki at carbonic anhydrase (setting [2]) and on carbonic anhydrase (setting [3]) were 2.6 nM and 0.13 nM, respectively.

Turning to `CC(C)(C)NC[C@H](O)COc1nsnc1N1CCOCC1` [(S)-1-tert-Butylamino[(4-morpholino-1,2,5-thiadiazol-3-yl)oxy]-2-propanol], the local anesthetic properties result with intraocular pressure (advantage over many other β-adrenergic blocking agents, background statement) is listed as “devoid of local anesthetic properties”. Further, the unwanted side effects entry with intraocular pressure was “devoid of many unwanted side effects associated with pilocarpine”.

Consider `CCC[C@H]1C[C@H](NCC)c2cc(S(N)(=O)=O)sc2S1(=O)=O.Cl` [Compound 1, (S,S) (-)5,6-Dihydro-4-ethylamino-6-(n-propyl)-4H-thieno[2,3-b]thiopyran-2-sulfonamide-7,7-dioxide hydrochloride], for which the “drop in IOP” value in data set [1] was 11.3 mmHg.

The compound `CCCN[C@H]1C[C@H](CCC)S(=O)(=O)c2sc(S(N)(=O)=O)cc21` [Compound 3] gave an IC50 at carbonic anhydrase of 0.15 nM. The Ki on carbonic anhydrase (setting [2]) is 0.23 nM.

Turning to `CCN[C@H]1C[C@H](C)S(=O)(=O)c2sc(S(N)(=O)=O)cc21` [Compound 8], the “drop in IOP” value in data set [1] was determined as 5.6 mmHg.

In turn, `CCN[C@H]1C[C@H](CC)S(=O)(=O)c2sc(S(N)(=O)=O)cc21` [Compound 10] displayed an IC50 on carbonic anhydrase of 0.5 nM. Also, the Ki at carbonic anhydrase (setting [2]) is 0.3 nM.

Regarding `CCN[C@H]1C[C@@H](CC)S(=O)(=O)c2sc(S(N)(=O)=O)cc21` [Compound 11], the midpoint of inhibition against carbonic anhydrase, the IC50, lay at 0.8 nM. On carbonic anhydrase (setting [2]), the Ki was determined as 1 nM.

With `C=CC[C@@H]1C[C@H](NCC)c2cc(S(N)(=O)=O)sc2S1(=O)=O` [Compound 13, cis-6-Allyl-5,6-dihydro-4H-4-ethylaminothieno[2,3-b]thiopyran-2-sulfonamide-7,7-dioxide hydrochloride], half-maximal inhibition against carbonic anhydrase (IC50) was put at 0.21 nM. Further, on carbonic anhydrase (setting [2]), the Ki came to 0.4 nM. Besides, the “drop in IOP” value in data set [1] stood at 9.8 mmHg.

Consider `CNC(=O)Oc1ccc2c(c1)[C@]1(C)CCN(C)[C@@H]1N2C` [physostigmine], for which the “effect on intraocular pressure” value in the data set on intraocular pressure (background statement) is recorded as “reduce intraocular pressure”.

Take `CC[C@@H]1C(=O)OC[C@@H]1Cc1cncn1C` [pilocarpine]: the “effect on intraocular pressure” value with intraocular pressure (background statement) is on record as “reduce intraocular pressure”.

Values taken from US5091409A (priority 1990, dated 1992).
